The supplement of paper PMC10307832

Key:
Assay in all cases: relative viability (nuclei count vs DMSO), 5 days (fraction); higher = more cells survive
201T = system: 201T
Procedure, shortened: (§1)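 Lung cancer cell lines in 1536-well plates were dosed by pin tool the day after seeding, either with one drug alone or with a fixed anchor-drug dose plus five library-drug doses (not always all listed) in √10 steps. After 5 days, cells were fixed and their nuclei stained in one step (final 0.05% Triton X-100, 1% formaldehyde, 1 ug/ml Hoechst), then counted on 4× images. Relative viability is the nuclei count in treated wells divided by that in vehicle wells. Values are medians of duplicate plates.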

NCI-H1792 = system: NCI-H1792
Procedure, shortened: as §1

NCI-H1915 = system: NCI-H1915
Procedure, shortened: as §1

NCI-H1650 = system: NCI-H1650
Procedure, shortened: as §1

NCI-H441 = system: NCI-H441
Procedure, shortened: as §1

LC-2-ad = system: LC-2-ad
Procedure, shortened: as §1

PC-3 [JPC-3] = system: PC-3 [JPC-3]
Procedure, shortened: as §1

NCI-H460 = system: NCI-H460
Procedure, shortened: as §1

H3255 = system: H3255
Procedure, shortened: as §1

BEN = system: BEN
Procedure, shortened: as §1

HCC-15 = system: HCC-15
Procedure, shortened: as §1

NCI-H727 = system: NCI-H727
Procedure, shortened: as §1

NCI-H2023 = system: NCI-H2023
Procedure, shortened: as §1

ABC-1 = system: ABC-1
Procedure, shortened: as §1

NCI-H596 = system: NCI-H596
Procedure, shortened: as §1

NCI-H650 = system: NCI-H650
Procedure, shortened: as §1

NCI-H1944 = system: NCI-H1944
Procedure, shortened: as §1

NCI-H661 = system: NCI-H661
Procedure, shortened: as §1

CAL-12T = system: CAL-12T
Procedure, shortened: as §1

NCI-H2087 = system: NCI-H2087
Procedure, shortened: as §1

NCI-H520 = system: NCI-H520
Procedure, shortened: as §1

NCI-H1651 = system: NCI-H1651
Procedure, shortened: as §1

A-427 = system: A-427
Procedure, shortened: as §1

LCLC-97TM1 = system: LCLC-97TM1
Procedure, shortened: as §1

## COc1cc(N2CCC(C(N)=O)CC2)ccc1Nc1nc(N)c(Cl)c(Nc2ccccc2S(=O)(=O)C(C)C)n1 [HG-5-88-01] + COc1cccc2cc(-c3nc([C@H]4CC[C@H](C(=O)O)CC4)n4ncnc(N)c34)[nH]c12 [OSI-027] (partner 0.5 µM)
201T; first compound 0.04 µM
  relative viability: 0.84
201T; first compound 0.1265 µM
  relative viability: 0.745
201T; first compound 0.4 µM
  relative viability: 0.428
201T; first compound 1.265 µM
  relative viability: 0.668
201T; first compound 4 µM
  relative viability: 0.303
NCI-H1792; first compound 0.04 µM
  relative viability: 0.809
NCI-H1792; first compound 0.1265 µM
  relative viability: 0.823
NCI-H1792; first compound 0.4 µM
  relative viability: 0.794
NCI-H1792; first compound 4 µM
  relative viability: 0.574
NCI-H1915; first compound 0.04 µM
  relative viability: 0.63
NCI-H1915; first compound 0.1265 µM
  relative viability: 0.625
NCI-H1915; first compound 0.4 µM
  relative viability: 0.69
NCI-H1915; first compound 1.265 µM
  relative viability: 0.697
NCI-H1915; first compound 4 µM
  relative viability: 0.527
NCI-H1650; first compound 0.04 µM
  relative viability: 0.603
NCI-H1650; first compound 0.1265 µM
  relative viability: 0.657
NCI-H1650; first compound 0.4 µM
  relative viability: 0.399
NCI-H1650; first compound 1.265 µM
  relative viability: 0.32
NCI-H1650; first compound 4 µM
  relative viability: 0.265
NCI-H441; first compound 0.04 µM
  relative viability: 0.787
NCI-H441; first compound 0.1265 µM
  relative viability: 0.77
NCI-H441; first compound 0.4 µM
  relative viability: 0.848
NCI-H441; first compound 1.265 µM
  relative viability: 0.437
NCI-H441; first compound 4 µM
  relative viability: 0.421
LC-2-ad; first compound 0.04 µM
  relative viability: 0.819
LC-2-ad; first compound 0.1265 µM
  relative viability: 0.944
LC-2-ad; first compound 0.4 µM
  relative viability: 0.826
LC-2-ad; first compound 1.265 µM
  relative viability: 0.558
LC-2-ad; first compound 4 µM
  relative viability: 0.416
PC-3 [JPC-3]; first compound 0.04 µM
  relative viability: 0.701
PC-3 [JPC-3]; first compound 0.1265 µM
  relative viability: 0.759
PC-3 [JPC-3]; first compound 0.4 µM
  relative viability: 0.721
PC-3 [JPC-3]; first compound 1.265 µM
  relative viability: 0.543
PC-3 [JPC-3]; first compound 4 µM
  relative viability: 0.577
NCI-H460; first compound 0.04 µM
  relative viability: 0.604
NCI-H460; first compound 0.1265 µM
  relative viability: 0.655
NCI-H460; first compound 0.4 µM
  relative viability: 0.543
NCI-H460; first compound 1.265 µM
  relative viability: 0.344
NCI-H460; first compound 4 µM
  relative viability: 0.287
H3255; first compound 0.04 µM
  relative viability: 0.558
H3255; first compound 0.1265 µM
  relative viability: 0.538
H3255; first compound 0.4 µM
  relative viability: 0.643
H3255; first compound 4 µM
  relative viability: 0.432
BEN; first compound 0.04 µM
  relative viability: 0.305
BEN; first compound 0.1265 µM
  relative viability: 0.312
BEN; first compound 0.4 µM
  relative viability: 0.262
BEN; first compound 1.265 µM
  relative viability: 0.3
BEN; first compound 4 µM
  relative viability: 0.262
HCC-15; first compound 0.04 µM
  relative viability: 0.683
HCC-15; first compound 0.1265 µM
  relative viability: 0.8
HCC-15; first compound 0.4 µM
  relative viability: 0.539
HCC-15; first compound 1.265 µM
  relative viability: 0.547
HCC-15; first compound 4 µM
  relative viability: 0.326
NCI-H727; first compound 0.04 µM
  relative viability: 0.423
NCI-H727; first compound 0.1265 µM
  relative viability: 0.619
NCI-H727; first compound 0.4 µM
  relative viability: 0.493
NCI-H727; first compound 1.265 µM
  relative viability: 0.424
NCI-H727; first compound 4 µM
  relative viability: 0.355
NCI-H2023; first compound 0.04 µM
  relative viability: 0.433
NCI-H2023; first compound 0.1265 µM
  relative viability: 0.407
NCI-H2023; first compound 0.4 µM
  relative viability: 0.205
NCI-H2023; first compound 1.265 µM
  relative viability: 0.109
NCI-H2023; first compound 4 µM
  relative viability: 0.127
ABC-1; first compound 0.04 µM
  relative viability: 0.468
ABC-1; first compound 0.1265 µM
  relative viability: 0.428
ABC-1; first compound 0.4 µM
  relative viability: 0.399
ABC-1; first compound 1.265 µM
  relative viability: 0.348
ABC-1; first compound 4 µM
  relative viability: 0.293
NCI-H596; first compound 0.04 µM
  relative viability: 0.61
NCI-H596; first compound 0.1265 µM
  relative viability: 0.693
NCI-H596; first compound 0.4 µM
  relative viability: 0.729
NCI-H596; first compound 1.265 µM
  relative viability: 0.59
NCI-H596; first compound 4 µM
  relative viability: 0.393
NCI-H650; first compound 0.04 µM
  relative viability: 0.492
NCI-H650; first compound 0.1265 µM
  relative viability: 0.476
NCI-H650; first compound 0.4 µM
  relative viability: 0.431
NCI-H650; first compound 1.265 µM
  relative viability: 0.443
NCI-H650; first compound 4 µM
  relative viability: 0.319
NCI-H1944; first compound 0.04 µM
  relative viability: 0.386
NCI-H1944; first compound 0.1265 µM
  relative viability: 0.391
NCI-H1944; first compound 0.4 µM
  relative viability: 0.422
NCI-H1944; first compound 1.265 µM
  relative viability: 0.297
NCI-H1944; first compound 4 µM
  relative viability: 0.251
NCI-H661; first compound 0.04 µM
  relative viability: 0.659
NCI-H661; first compound 0.1265 µM
  relative viability: 0.709
NCI-H661; first compound 0.4 µM
  relative viability: 0.684
NCI-H661; first compound 1.265 µM
  relative viability: 0.428
NCI-H661; first compound 4 µM
  relative viability: 0.569
CAL-12T; first compound 0.04 µM
  relative viability: 0.491
CAL-12T; first compound 0.1265 µM
  relative viability: 0.672
CAL-12T; first compound 0.4 µM
  relative viability: 0.612
CAL-12T; first compound 1.265 µM
  relative viability: 0.208
CAL-12T; first compound 4 µM
  relative viability: 0.173
NCI-H2087; first compound 0.04 µM
  relative viability: 0.521
NCI-H2087; first compound 0.1265 µM
  relative viability: 0.542
NCI-H2087; first compound 0.4 µM
  relative viability: 0.505
NCI-H2087; first compound 1.265 µM
  relative viability: 0.349
NCI-H2087; first compound 4 µM
  relative viability: 0.215
NCI-H520; first compound 0.04 µM
  relative viability: 0.23
NCI-H520; first compound 0.1265 µM
  relative viability: 0.258
NCI-H520; first compound 0.4 µM
  relative viability: 0.236
NCI-H520; first compound 1.265 µM
  relative viability: 0.289
NCI-H520; first compound 4 µM
  relative viability: 0.221
NCI-H1651; first compound 0.04 µM
  relative viability: 0.748
NCI-H1651; first compound 0.1265 µM
  relative viability: 0.696
NCI-H1651; first compound 0.4 µM
  relative viability: 0.605
NCI-H1651; first compound 1.265 µM
  relative viability: 0.627
NCI-H1651; first compound 4 µM
  relative viability: 0.58
A-427; first compound 0.04 µM
  relative viability: 0.441
A-427; first compound 0.1265 µM
  relative viability: 0.533
A-427; first compound 0.4 µM
  relative viability: 0.524
A-427; first compound 1.265 µM
  relative viability: 0.416
A-427; first compound 4 µM
  relative viability: 0.283
LCLC-97TM1; first compound 0.04 µM
  relative viability: 0.445
LCLC-97TM1; first compound 0.1265 µM
  relative viability: 0.521
LCLC-97TM1; first compound 0.4 µM
  relative viability: 0.238
LCLC-97TM1; first compound 1.265 µM
  relative viability: 0.305
LCLC-97TM1; first compound 4 µM
  relative viability: 0.131
